Source: the supplement of paper PMC10307832

Key:
Test in all cases: relative viability (nuclei count vs DMSO), 5 days (fraction); higher = more cells survive
[1] = compound: Nc1ccn([C@@H]2O[C@H](CO)[C@@H](O)C2(F)F)c(=O)n1 [Gemcitabine] + CC(=O)Nc1cccc(-n2c(=O)n(C3CC3)c(=O)c3c(Nc4ccc(I)cc4F)n(C)c(=O)c(C)c32)c1 [Trametinib] (partner 0.02 µM)
How it was run: (§1)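 Medians of duplicate plates are given as relative viability. That measure is the nuclei count in treated wells divided by the count in vehicle wells. Counts were taken on 4× images of lung cancer cell lines in 1536-well plates, 5 days after pin-tool dosing the day after seeding with one drug alone or a fixed anchor-drug dose plus five library-drug doses (not always all listed) in √10 steps.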

[2] = compound: Nc1ccn([C@@H]2O[C@H](CO)[C@@H](O)C2(F)F)c(=O)n1 [Gemcitabine] + N=C(N)NC(=N)NCCc1ccccc1 [Phenformin] (partner 250 µM)
How it was run: as §1

[3] = compound: Nc1ccn([C@@H]2O[C@H](CO)[C@@H](O)C2(F)F)c(=O)n1 [Gemcitabine] + COc1cccc2cc(-c3nc([C@H]4CC[C@H](C(=O)O)CC4)n4ncnc(N)c34)[nH]c12 [OSI-027] (partner 0.5 µM)
How it was run: as §1

[4] = compound: Nc1ccn([C@@H]2O[C@H](CO)[C@@H](O)C2(F)F)c(=O)n1 [Gemcitabine]
How it was run: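 Lung cancer cell lines in 1536-well plates were exposed by pinning to five library-drug doses (not always all listed) √10 apart, following an overnight hold at 37 °C. MetaXpress counted Hoechst-stained nuclei from 4× images taken after 5 days without medium change. Viability is the median ratio of treated-well to vehicle-well nuclei across plates. Plates required control CV below 25% and at least one doubling.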

Cell Line	relative viability ([1]; first compound 0.001 µM)	relative viability ([1]; first compound 0.003162 µM)	relative viability ([1]; first compound 0.01 µM)	relative viability ([1]; first compound 0.03162 µM)	relative viability ([1]; first compound 0.1 µM)	relative viability ([2]; first compound 0.001 µM)	relative viability ([2]; first compound 0.003162 µM)	relative viability ([2]; first compound 0.01 µM)	relative viability ([2]; first compound 0.03162 µM)	relative viability ([2]; first compound 0.1 µM)	relative viability ([3]; first compound 0.001 µM)	relative viability ([3]; first compound 0.003162 µM)	relative viability ([3]; first compound 0.01 µM)	relative viability ([3]; first compound 0.03162 µM)	relative viability ([3]; first compound 0.1 µM)	relative viability ([4]; 0.001 µM)	relative viability ([4]; 0.003162 µM)	relative viability ([4]; 0.01 µM)	relative viability ([4]; 0.03162 µM)	relative viability ([4]; 0.1 µM)
ChaGo-K-1	0.897	0.757	0.461	0.189	0.155	0.444	0.378	0.204	0.17	0.159	0.516	0.458	0.212	0.185	0.164	1.07	0.871	0.538	0.265	0.219
EKVX	0.394	0.243	0.13	0.161	0.11	0.233	0.194	0.119	0.132	0.109	0.773	0.719	0.391	0.147	0.122	0.943	0.766	0.461	0.201	0.139
EMC-BAC-2	0.938	0.941	0.524	0.284	0.273	0.566	0.525	0.425	0.205	0.204	0.422	0.423	0.212	0.214	0.223	0.89	0.996	0.642	0.267	0.226
EPLC-272H	0.301	0.301	0.248	0.18	0.106	0.348	0.324	0.174	0.158	0.0709	0.334	0.298	0.159	0.136	0.105	1.05	1.01	0.591	0.113	0.0839
H3255	0.608	0.517	0.514	0.318	0.271	0.352	0.266	0.31	0.368	0.302	0.353	0.366	0.394	0.26	0.248	0.981	0.781	0.631	0.297	0.198
HARA	0.592	0.635	0.797	0.143	0.107	0.498	0.556	0.445	0.222	0.0544	0.734	0.68	0.388	0.175	0.0508	1.03	0.984	0.971	0.469	0.118
HCC-15	0.369	0.383	0.363	0.196	0.0914	0.47	0.492	0.331	0.144	0.0968	0.773	0.624	0.578	0.142	0.0829	1.04	1.06	0.941	0.468	0.108
HCC-44	1.11	1.02	1.02	0.895	0.42	0.156	0.139	0.101	0.098	0.102	0.562	0.352	0.357	0.178	0.155	0.99	0.815	0.935	0.527	0.264
